{
  "source": "patent US8865191B2",
  "about": "“Lipid composition and skin care formulation containing the same” (Takasago International Corporation, priority 2003, dated 2014)",
  "assay": "Liquid crystal dispersion system formation with changed component (i)",
  "format": "physicochemical",
  "conditions": "component (i): phytosterol 2, cetanol 5, Table 6 component 3, δ-tocopherol 0.1 parts by weight",
  "description": "The racemic ceramide was obtained by converting a racemic sphinganine obtained by the method by D. Shapiro., et al., (J. Am. Chem. Soc., 80, 2170(1958)) into its stearoyl form.",
  "data": [
    {"smiles": "CCCCCCCCCCCCCCCCCC(=O)NC(CO)C(O)CCCCCCCCCCCCCCC", "note": "(racemic) [racemic ceramide]", "values": [
      {"measurement": "System morphology", "value": "difficult to form a stable liquid crystal dispersion system"}
    ]}
  ]
}
